Assays:
PKC [1] = assay: PKC activity time course in rat H19-7/IGF-IR hippocampal cells; type: cell-based
Procedure: (§1) Cell culture. Rat hippocampal H19-71GF-IR cells (ATCC, Manassas, Va.) were plated onto poly-L-lysine coated plates and grown at 35° C. in DMEM/10% FCS for several days until about 50% coverage was obtained. The cells were then induced to differentiate into a neuronal phenotype by replacing the medium with 5 ml N2 medium containing 10 ng/ml basic fibroblast growth factor at 39° C. and grown in T-75 flasks at 37° C. Human SH-SY5Y neuroblastoma cells (ATCC) were cultured in 45% F12K/45% MEM/10% FCS. Mouse N2A neuroblastoma cells were cultured in DMEM/10% FCS without glutamine. Rat hippocampal neurons from 18-day-old embryonic
(§2) Protein kinase C assay. Rat hippocampal cells were cultured and scraped in 0.2 ml homogenization buffer (20 triM Tris-HCl, pH 7.4, 50 mM NaF, 1 μg/ml leupeptin, and 0.1 mM PMSF) and homogenized by sonication in a Marsonix micro-probe sonicator (5 see, 10W). To measure PKC, 10 ul of cell homogenate or purified. PKC isozyme (purchased from Calbiochem) was incubated for 15 min at 37° C. in the presence of 10 μM histones, 4.89 mM CaCl2, 1.2 μg/μl phosphatidyl-L-serine, 0.18 μg/μl 1,2-dioctanoyl-sn-glycerol, 10 mM MgCl2, 20 mM HEPES (pH 7.4), 0.8 mM EDTA, 4 mM EGTA, 4% glycerol, 8 μg/ml aprotinin, 8 μg/ml leupeptin, and 2 mM benzamidine. 0.5 μCi [^γ-32P]ATP was added and ^32P-phosphoprotein formation was measured by adsorption onto phosphocellulose as described previously. Nelson and Alkon, J. Neurochemistry. 1995; 65: 2350-57. For measurements of activation by BR-101 (DCP-LA) and similar compounds, PKC activity was measured in the absence of diacylglycerol and phosphatidyl serine, as described by Kanno et al., and PKC δ, ε, η, and μ were measured in the absence of added EGTA and CaCl2, as described by Kanno et al., J. Lipid Res. 2006; 47: 1146-50. Low concentrations of Ca^2+ are used because high Ca^2+ interacts with the PKC phosphatidylserine binding site and prevents activation. For measurements of bryostatin activation, 1,2-diacylglycerol was omitted unless otherwise stated.

other PKC isoforms = assay: Protein kinase C assay, purified PKC isozymes: other isoforms; type: biochemical; settings: data not shown
Procedure: as §2, with “Low concentrations of Ca^2+ are used because high Ca^2+ interacts with the PKC phosphatidylserine binding site and prevents activation. For measurements of bryostatin activation, 1,2-diacylglycerol was omitted unless otherwise stated.” left out
(§3) To determine their PKC isozyme specificity, the new compounds were preincubated with purified PKC for five minutes and the PKC activity was measured radiometrically.

PKCγ = molecular target: T1, PKCγ (Homo sapiens, UniProt P05129); assay: Protein kinase C assay, purified PKC isozymes: PKCγ; type: biochemical; settings: higher concentrations, 50-100 μM; data not shown
T1 construct: purchased Calbiochem
Procedure: as §2, with “Low concentrations of Ca^2+ are used because high Ca^2+ interacts with the PKC phosphatidylserine binding site and prevents activation. For measurements of bryostatin activation, 1,2-diacylglycerol was omitted unless otherwise stated.” left out
as §3

[2] = system: Endothelin-converting enzyme (ECE); assay: ECE assay in SH-SY5Y neuroblastoma cells; type: cell-based, human; settings: bryostatin 0.27 nM, BR-101 1 μM, BR-111 1 μM; FIG. 10
Procedure: ECE assay. SH-S757 neuroblastoma cells were incubated with bryostatin (0.27 nM), BR-101 (PCP-LA) (1 μM), and BR-111 (DHA-CP6) (1 μM). Endothelin-converting enzyme (ECE) was measured fluorimetrically using the method of Johnson and Ahn, Anal. Biochem. 2000; 286: 112-118. A sample of cell homogenate (20 μl) was incubated in 50 mM MES-KOH, pH 6.0, 0.01% C12E10 (polyoxyethylene-10-tauryl ether), and 15 μM McaBK2. (7-Methoxycournarin-4-acetyl [Ala7-(2,4-Dinitrophenyl)Lys9]-bradykinin trifluoroacetate salt) (Sigma-Aldrich). After 60 min at 37° C., the reaction was quenched by adding trifluoroacetic acid to 0.5%. The sample was diluted to 1.4 ml with water and the fluorescence was measured at ex=334 nm, em=398 nm.

PKC [3] = assay: PKC activity time course in rat hippocampal primary neurons; type: cell-based; settings: sustained activation only observed in primary neurons
Procedure: as §1
Sprague Dawley rat brains were plated on 12- or 96-well plates coated with poly-D-lysine (Sigma-Aldrich, St, Louis, Mo.) in B-27 neurobasal medium containing 0.5 mM glutamine and 25 uM glutamate (Invitrogen, Carlsbad, Calif.) and cultured for three days in the medium without glutamate. […]
Protein kinase C assay. […] 0.5 μCi [^γ-32P]ATP was added and ^32P-phosphoprotein formation was measured by adsorption onto phosphocellulose as described previously. […] For measurements of activation by BR-101 (DCP-LA) and similar compounds, PKC activity was measured in the absence of diacylglycerol and phosphatidyl serine, as described by Kanno et al., and PKC δ, ε, η, and μ were measured in the absence of added EGTA and CaCl2, as described by Kanno et al., J. Lipid Res. 2006; 47: 1146-50. […]

PKCε = molecular target: T2, PKCε (Homo sapiens, UniProt Q02156); settings: Kanno et al.; cited from earlier work
T2 construct: purchased Calbiochem
T2 sequence (Q02156 1-737): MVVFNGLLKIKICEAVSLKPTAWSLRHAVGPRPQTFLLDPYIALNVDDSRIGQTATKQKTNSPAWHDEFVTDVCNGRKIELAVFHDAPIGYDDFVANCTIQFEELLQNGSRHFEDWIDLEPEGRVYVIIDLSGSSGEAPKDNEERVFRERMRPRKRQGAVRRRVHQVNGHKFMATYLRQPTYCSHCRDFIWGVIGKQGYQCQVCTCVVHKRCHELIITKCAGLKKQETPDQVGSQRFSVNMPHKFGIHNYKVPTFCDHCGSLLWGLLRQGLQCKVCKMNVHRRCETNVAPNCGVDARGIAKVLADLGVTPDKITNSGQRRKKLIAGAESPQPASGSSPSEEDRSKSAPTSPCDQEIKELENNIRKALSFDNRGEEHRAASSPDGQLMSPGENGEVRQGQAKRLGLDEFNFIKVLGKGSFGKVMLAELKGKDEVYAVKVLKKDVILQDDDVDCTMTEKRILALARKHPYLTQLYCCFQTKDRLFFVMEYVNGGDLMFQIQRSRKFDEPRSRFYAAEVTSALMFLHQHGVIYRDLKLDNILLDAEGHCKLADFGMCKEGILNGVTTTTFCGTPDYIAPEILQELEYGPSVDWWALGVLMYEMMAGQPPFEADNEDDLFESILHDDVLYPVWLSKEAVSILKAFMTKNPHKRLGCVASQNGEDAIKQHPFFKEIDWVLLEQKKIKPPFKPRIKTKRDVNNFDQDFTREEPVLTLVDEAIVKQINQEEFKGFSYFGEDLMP

PKCδ = molecular target: T3, PKCδ (Homo sapiens, UniProt Q05655); assay: Protein kinase C assay, purified PKC isozymes: PKCδ; type: biochemical; settings: higher concentrations, about 1-100 μM; data not shown
T3 construct: purchased Calbiochem
Procedure: as §2, with “Low concentrations of Ca^2+ are used because high Ca^2+ interacts with the PKC phosphatidylserine binding site and prevents activation. For measurements of bryostatin activation, 1,2-diacylglycerol was omitted unless otherwise stated.” left out
as §3

T3 sequence (Q05655 whole entry): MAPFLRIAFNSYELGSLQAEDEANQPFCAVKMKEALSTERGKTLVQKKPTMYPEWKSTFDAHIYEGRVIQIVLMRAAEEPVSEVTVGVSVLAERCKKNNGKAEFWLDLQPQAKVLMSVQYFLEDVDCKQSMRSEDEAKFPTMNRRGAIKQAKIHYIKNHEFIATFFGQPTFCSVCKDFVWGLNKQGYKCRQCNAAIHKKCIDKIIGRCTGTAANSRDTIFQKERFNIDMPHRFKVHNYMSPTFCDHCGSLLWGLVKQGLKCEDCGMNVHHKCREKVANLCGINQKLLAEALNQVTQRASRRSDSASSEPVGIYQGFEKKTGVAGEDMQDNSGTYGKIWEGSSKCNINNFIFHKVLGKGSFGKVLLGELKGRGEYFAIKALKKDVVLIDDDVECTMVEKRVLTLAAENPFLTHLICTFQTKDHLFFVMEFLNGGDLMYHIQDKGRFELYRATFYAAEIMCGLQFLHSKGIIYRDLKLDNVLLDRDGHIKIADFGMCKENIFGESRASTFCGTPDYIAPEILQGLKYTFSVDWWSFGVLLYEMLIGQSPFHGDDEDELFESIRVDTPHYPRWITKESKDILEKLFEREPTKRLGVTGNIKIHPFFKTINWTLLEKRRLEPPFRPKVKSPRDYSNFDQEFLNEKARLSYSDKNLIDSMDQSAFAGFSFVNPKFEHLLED

SMILES	downregulation of PKC (PKC [1])	effects on the other PKC isoforms (other PKC isoforms)	effect on PKCγ (PKCγ)	ECE activity [2]	duration of PKC elevation (PKC [3])	potency for PKCε over other PKC isozymes (PKCε)	effect on PKCδ (PKCδ)
CCCCCC1CC1CC1CC1CCCCCCCC(=O)O (centres unmarked) [BR-101, 8-[2-(2-pentyl-cyclopropylmethyl)-cyclopropyl]-octanoic acid]	could not be measured	relatively small effects	activated	sustained increase	remained elevated for at least four hours	greater than 7 fold	partially inhibited
CCC1CC1CC1CC1CC1CC1CC1CC1CC1CC1CC1CC1CCC(=O)OC (centres unmarked) [BR-111, methyl-3-(2-((2-((2-((2-((2-((2-ethylcyclopropyl)methyl)cyclopropyl)methyl)cyclopropyl)methyl)-cyclopropyl)methyl)cyclopropyl)methyl)cyclopropyl)propanoate]	–	–	–	sustained increase	–	–	–

From patent US11820745B2, “PKC-activating compounds for the treatment of neurodegenerative diseases” (Synaptogenix, Inc., priority 2008, dated 2023)
